Assay results from patent US7307083B2, “Tetrahydro-acridine and dithiolane derivatives” (priority 2005, dated 2007).
“Also recorded” adds a separate entry of the source. Read-outs that look alike come from different tables or passages of the source. Marks after values point to notes of the source that are not given here. Square brackets hold non-standard residues; d marks the D form. Peptide text beside a SMILES is read from it. Sta = CC(C)C[C@H](N)[C@@H](O)CC(=O)O

Tests used:
[1] = biological target: human recombinant acetylcholinesterase (AChE or HuAChE) (Homo sapiens, UniProt P22303); experiment: biochemical; type: biochemical
[2] = biological target: butyrylcholinesterase (BChE) from human serum (Homo sapiens, UniProt P06276); experiment: biochemical; type: biochemical
SH-SY5Y cells [3] = experiment: Toxic effects, colorimetric MTT assay; type: cell-based; details: 24 hours; for effect on cellular viability (MTT): 0.1-50 μM
Procedure: The results are expressed as a percentage of cells with respect to the control.
The cellular viability was expressed as a percentage of control cells and calculated by the formula Ft/Fnt×100, where Ft=absorbance of treated neurones and Fnt=absorbance of non treated neurones.
The SH-SY5Y cells were routinely grown at 37° C. in a humidified incubator with 5% CO2 in Dulbecco's modified Eagle's medium supplemented with 10% foetal calf serum (FCS), glutamine 2 mM, penicillin […] and streptomycin 50 μg/mL.

SH-SY5Y cells [4] = experiment: Intracellular antioxidant activity: ROS formation evoked by t-BuOOH (DCFH-DA probe); type: cell-based, human; details: for % intracellular ROS: percentage increase of ROS by t-BuOOH, mean±SD of three tests; for effect on ROS formation, in words: 0.1-50 μM for LA and 7, 0.1-5 μM for 15
Procedure: Significant inhibiting effects were obtained with concentrations of 7 or 5 μM (p<0.01), 10 μM and 50 μM (for both p<0.001).
The results are expressed as the percentage increase of intracellular ROS determined by the treatment with tert-butyl hydroperoxide. Data are reported as the mean±SD (standard deviation) of three tests independent of one another (treated against not treated; *p<0.01, **p<0.001). ^btox=cytotoxicity.

[5] = biological target: T1, AChE-induced Aβ40 aggregation (Homo sapiens, UniProt P22303); experiment: biochemical; details: for inhibition at 100 µM: read-out: % of inhibition ± SEM of AChE-induced Aβ40 aggregation
[6] = biological target: T1, AChE-induced Aβ40 aggregation
BACE1 (β-secretase) = biological target: T2, BACE1 (β-secretase) (Homo sapiens, UniProt P56817); experiment: biochemical
T2 construct: host or cells: Baculovirus expression system
Procedure: Assay for the analysis of BACE activity
BACE1 (β-secretase) purified and expressed in Baculovirus in 50 mM Tris HCl (pH=7.5), 10% glycerol (5 Units)
Assay buffer: 50 mM Sodium Acetate, pH=4.5
20 μL of substrate were added to 20 μL of the compound to be tested (or to the buffer if preparing the control well)
To start the reaction, 20 μL of BACE1 enzyme were added to the well.
The mixture was incubated at 37° C. for 60 minutes.
20 μL of the solution were added to stop the reaction. Then the fluorescence signal was read.
BACE activity was measured with a fluorimetric analysis method using a multi-well spectrofluorimeter. The peptide substrate of the analysis mimes the APP protein which is the natural substrate of BACE.
The inhibition curves were obtained for each compound by plotting on a graph the inhibition percentages obtained with respect to the logarithm of the inhibitor concentration. The linear regression parameters were determined and, when possible, the value of IC50 was extrapolated (GraphPad Prism 3.0 GraphPad Software Inc.).
The value of IC50 was calculated using GraphPad Prism software.

anti-NGF mice (AD11) = experiment: Cholinergic deficit of anti-NGF mice: ChAT immunohistochemistry, cholinergic neurones in the basal forebrain; details: i.p., 15 days, doses of Table 6
Procedure: Immunohistochemistry was carried out to show the number of cholinergic neurones in the basal forebrain. For this purpose, sections were incubated with the monoclonal antibody anticholine acetyltransferase (1:500, Chemicon International Inc., Temecula, Calif.).

human recombinant AChE = human recombinant AChE (Homo sapiens, UniProt P22303); experiment: Action mechanism and inhibition constant Ki (Lineweaver-Burk method); type: biochemical
Text: Determination of the action mechanism and of the inhibition constant (Ki). […] To obtain an estimate of the competitive inhibition constant Ki, the Lineweaver-Burk method was used. […] The data obtained were plotted on a graph according to the Lineweaver-Burk method, that is indicating the reciprocal of the enzymatic velocity (1/v) as a function of the reciprocal of the substrate concentration (1/[ACTh)].

[7] = human recombinant AChE, mean of two independent measurements, each in duplicate, read-out: IC50 AChE
[8] = BChE from human serum, mean of two independent measurements, each in duplicate, read-out: IC50 BChE

butyrylcholinesterase (BChE) from human serum, sequence (P06276 29-602): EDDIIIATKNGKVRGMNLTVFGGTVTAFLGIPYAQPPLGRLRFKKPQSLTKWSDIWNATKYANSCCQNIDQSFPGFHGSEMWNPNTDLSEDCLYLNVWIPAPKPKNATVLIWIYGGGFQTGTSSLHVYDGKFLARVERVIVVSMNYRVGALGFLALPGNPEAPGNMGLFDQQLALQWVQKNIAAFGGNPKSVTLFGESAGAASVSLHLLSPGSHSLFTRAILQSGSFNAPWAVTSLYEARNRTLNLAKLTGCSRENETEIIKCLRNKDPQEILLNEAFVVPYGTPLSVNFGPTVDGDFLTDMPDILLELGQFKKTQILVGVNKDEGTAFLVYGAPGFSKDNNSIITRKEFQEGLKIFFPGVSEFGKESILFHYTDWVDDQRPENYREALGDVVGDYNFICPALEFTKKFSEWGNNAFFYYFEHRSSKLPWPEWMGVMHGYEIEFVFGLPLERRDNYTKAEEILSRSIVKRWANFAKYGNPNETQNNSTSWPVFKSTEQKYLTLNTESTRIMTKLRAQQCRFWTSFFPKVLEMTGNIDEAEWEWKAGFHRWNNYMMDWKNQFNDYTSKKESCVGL
T1 sequence (P22303 32-614): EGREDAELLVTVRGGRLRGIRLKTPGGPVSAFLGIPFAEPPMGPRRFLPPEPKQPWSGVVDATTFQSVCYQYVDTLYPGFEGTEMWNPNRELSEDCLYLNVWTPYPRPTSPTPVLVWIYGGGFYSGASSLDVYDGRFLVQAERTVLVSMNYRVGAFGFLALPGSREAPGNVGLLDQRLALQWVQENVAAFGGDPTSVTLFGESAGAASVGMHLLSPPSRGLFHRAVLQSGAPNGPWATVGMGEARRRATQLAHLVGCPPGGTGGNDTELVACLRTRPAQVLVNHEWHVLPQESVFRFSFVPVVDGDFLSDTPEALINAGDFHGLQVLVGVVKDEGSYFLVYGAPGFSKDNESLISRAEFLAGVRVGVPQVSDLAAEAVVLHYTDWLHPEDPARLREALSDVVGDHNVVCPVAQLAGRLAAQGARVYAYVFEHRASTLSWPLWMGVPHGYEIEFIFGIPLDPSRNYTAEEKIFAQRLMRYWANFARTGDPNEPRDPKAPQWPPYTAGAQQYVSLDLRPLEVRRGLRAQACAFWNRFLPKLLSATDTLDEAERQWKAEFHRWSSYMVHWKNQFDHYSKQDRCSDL
human recombinant acetylcholinesterase (AChE or HuAChE), sequence (P22303 32-614): as above
T2 sequence (P56817 46-501): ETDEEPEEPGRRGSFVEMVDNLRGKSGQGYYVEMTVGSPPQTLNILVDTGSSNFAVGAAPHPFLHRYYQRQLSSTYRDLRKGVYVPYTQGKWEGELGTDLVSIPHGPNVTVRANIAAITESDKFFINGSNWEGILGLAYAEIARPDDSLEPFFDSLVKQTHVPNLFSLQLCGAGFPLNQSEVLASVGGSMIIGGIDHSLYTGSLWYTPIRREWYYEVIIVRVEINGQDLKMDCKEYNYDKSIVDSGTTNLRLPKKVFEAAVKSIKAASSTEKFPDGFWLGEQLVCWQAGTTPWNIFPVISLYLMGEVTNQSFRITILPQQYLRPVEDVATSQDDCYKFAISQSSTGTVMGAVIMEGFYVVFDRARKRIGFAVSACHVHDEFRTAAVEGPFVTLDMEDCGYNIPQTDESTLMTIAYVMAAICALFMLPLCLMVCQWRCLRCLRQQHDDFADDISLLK
human recombinant AChE, sequence (P22303 32-614): as the sequence (P22303 32-614) above

O=C(CCCCC1CCSS1)NCCCCCCNc1c2c(nc3ccccc13)CCCC2 (stereo not shown) [Compound 5, 5-[1,2]dithiolan-3-yl-pentanoic acid [6-(1,2,3,4-tetrahydro-acridin-9-ylamino)-hexyl]-amide]
IC50 [1, 7]: 30.1 nM
IC50 [2, 8]: 3.24 nM

NCCCNc1c2c(nc3cc(Cl)ccc13)CCCC2 [Compound 15, N^1-(6-chloro-1,2,3,4-tetrahydro-acridin-9-yl)-propane-1,3-diamine]
IC50 ([1]; read-out: IC50 AChE): 21.5 nM
decrease of cellular viability (SH-SY5Y cells [3]; 10 μM): 88%
decrease of cellular viability (SH-SY5Y cells [3]; 50 μM): 99%
effect on cellular viability (MTT) (SH-SY5Y cells [3]): has a neurotoxic effect
% intracellular ROS (SH-SY5Y cells [4]; 0.1 μM): 88.75 ± 8.41%
% intracellular ROS (SH-SY5Y cells [4]; 0.5 μM): 95.00 ± 5.20%
% intracellular ROS (SH-SY5Y cells [4]; 1 μM): 77.00 ± 8.76%
% intracellular ROS (SH-SY5Y cells [4]; 5 μM): 61.67 ± 9.02* %
% intracellular ROS (SH-SY5Y cells [4]; 10 μM): 51.25 ± 9.21** %
% intracellular ROS (SH-SY5Y cells [4]; 50 μM): 30.50 ± 9.04** %
effect on ROS formation, in words (SH-SY5Y cells [4]): did not show any difference as regards ROS formation
inhibition at 100 µM [5]: 25 ± 5%

O=C(CCCC[C@@H]1CCSS1)NCCCNc1c2c(nc3cc(Cl)ccc13)CCCC2 [Compound 24]
IC50 [1]: 0.23 nM
power versus other classic AChE inhibitors approved for AD (AChE-induced Aβ40 aggregation) [6]: significantly more powerful than other classic AChE inhibitors
inhibition at 100 µM [5]: 68 ± 3%

COc1ccc2c3c1O[C@H]1C[C@@H](O)C=C[C@@]31CCN(C)C2 [Galantamine]
IC50 (BACE1 (β-secretase)): > 5000 nM

O=C(CCCCC1CCSS1)NCCCCNc1c2c(nc3ccccc13)CCCC2 (stereo not shown) [Compound 3, 5-[1,2]dithiolan-3-yl-pentanoic acid [4-(1,2,3,4-tetrahydro-acridin-9-ylamino)-butyl]amide]
IC50 [1, 7]: 35.2 nM
IC50 ([2]; read-out: IC50 BChE): 5.04 nM

O=C(O)CCCCC1CCSS1 (stereo not shown) [LA, lipoic acid, reference compound]
% of inhibition ± SEM of AChE-induced Aβ40 aggregation ([6]; compound 100 μM): <5%
recovery of the cholinergic deficit (number of cholinergic neurones in the basal forebrain) (anti-NGF mice (AD11)): did not allow the complete recovery of the cholinergic deficit

Nc1c2c(nc3cc(Cl)ccc13)CC(CNC(=O)CCCCC1CCSS1)CC2 (stereo not shown) [Compound 8, 5-[1,2]dithiolan-3-yl-pentanoic acid (9-Amino-6-chloro-1,2,3,4-tetrahydro-acridin-3-ylmethyl)-amide]
IC50 [1, 7]: 232 nM

O=C(CCCCC1CCSS1)NCCCCCCCNc1c2c(nc3ccccc13)CCCC2 (stereo not shown) [Compound 6, 5-[1,2]dithiolan-3-yl-pentanoic acid [7-(1,2,3,4-tetrahydro-acridin-9-ylamino)-heptyll]-amide]
IC50 [2, 8]: 8.58 nM

O=C(CCCCC1CCSS1)NCCCNc1c2c(nc3ccccc13)CCCC2 (stereo not shown) [Compound 2, 5-[1,2]dithiolan-3-yl-pentanoic acid [3-(1,2,3,4-tetrahydro-acridin-9-ylamino)propyl]amide]
IC50 [1, 7]: 6.96 nM
IC50 [2, 8]: 12 nM

O=C(CCCCC1CCSS1)NCCCNc1c2c(nc3cc(Cl)ccc13)CCCC2 (racemic) [Compound 7, 5-[1,2]dithiolan-3-yl-pentanoic acid [3-(6-chloro-1,2,3,4-tetrahydro-acridin-9-ylamino)-propyl]-amide]
IC50 [1]: 0.253 nM
IC50 [2, 8]: 10.8 nM
Ki (human recombinant AChE): 0.155 ± 0.046 nM
type of inhibition (Lineweaver-Burk) (human recombinant AChE): mixed type of competitive inhibition
effect on cellular viability (MTT) (SH-SY5Y cells [3]): did not lead to variations in cellular viability; also recorded: do not influence cellular vitality
% intracellular ROS (SH-SY5Y cells [4]; 0.1 μM): 99.50 ± 3.54%
% intracellular ROS (SH-SY5Y cells [4]; 0.5 μM): 99.67 ± 7.02%
% intracellular ROS (SH-SY5Y cells [4]; 1 μM): 96.67 ± 8.02%
% intracellular ROS (SH-SY5Y cells [4]; 5 μM): 82.50 ± 7.78%
% intracellular ROS (SH-SY5Y cells [4]; 10 μM): tox^b
% intracellular ROS (SH-SY5Y cells [4]; 50 μM): tox^b
effect on ROS formation, in words (SH-SY5Y cells [4]): inhibiting effect in ROS formation which depended strongly on the concentration
inhibition of ROS formation (SH-SY5Y cells [4]; SH-SY5Y, t-BuOOH): 64%
IC50 (BACE1 (β-secretase); substrate 250 nM, enzyme 1 U/mL, 60 minutes, 37° C., read-out: IC50 (nM) on BACE): 69.7 nM
power versus other classic AChE inhibitors approved for AD (AChE-induced Aβ40 aggregation) [6]: significantly more powerful than other classic AChE inhibitors
times less powerful than propidium (AChE-induced Aβ40 aggregation) [6]: 3
IC50 [5]: 45000 ± 14600 nM
inhibition at 100 µM [5]: 61.8 ± 0.8%
recovery of the cholinergic deficit (number of cholinergic neurones in the basal forebrain) (anti-NGF mice (AD11)): did not allow the complete recovery of the cholinergic deficit

CC(c1cccc(OCCCNC(=O)CCCCC2CCSS2)c1)N(C)C (stereo not shown) [Compound 19, 5-[1,2]dithiolan-3-yl-pentanoic acid {3-[3-(1-dimethylamino-ethyl)-phenoxy]-propyl}-amide]
IC50 [1, 7]: 25200 nM
IC50 [2]: 82400 nM
inhibition at 100 µM [5]: 9 ± 6.6%
recovery of the cholinergic deficit (number of cholinergic neurones in the basal forebrain) (anti-NGF mice (AD11)): did not allow the complete recovery of the cholinergic deficit

O=C(CCCCc1cccs1)NCCCNc1c2c(nc3cc(Cl)ccc13)CCCC2 [Compound 21, 5-thiofen-2-yl-pentanoic acid [3-(6-chloro-1,2,3,4-tetrahydro-acridin-9-ylamino)-propyl]-amide]
IC50 [1]: 2.66 nM
IC50 [2, 8]: 30.6 nM
inhibition at 100 µM [5]: 24.1 ± 5.7%

COc1cccc(C(C)N(C)CCCNC(=O)CCCCC2CCSS2)c1 (stereo not shown) [Compound 20, 5-[1,2]dithiolan-3-yl-pentanoic acid (3-{[1-(3-methoxy-phenyl)-ethyl]-methyl-amino}-propyl)-amide]
IC50 [1, 7]: 74100 nM
IC50 [2, 8]: 398 nM
inhibition at 100 µM [5]: 15.6 ± 7.8%
recovery of the cholinergic deficit (number of cholinergic neurones in the basal forebrain) (anti-NGF mice (AD11)): did not allow the complete recovery of the cholinergic deficit

Nc1c2c(nc3ccccc13)CCCC2 [Tacrine, reference compound]
IC50 (BACE1 (β-secretase)): > 4000 nM
recovery of the cholinergic deficit (number of cholinergic neurones in the basal forebrain) (anti-NGF mice (AD11)): did not allow the complete recovery of the cholinergic deficit

CCN(C)C(=O)Oc1cccc([C@H](C)N(C)C)c1 [Rivastigmine]
IC50 (BACE1 (β-secretase)): > 3000 nM

COc1cc2nc(Cl)nc(NCCCNC(=O)CCCCC3CCSS3)c2cc1OC (stereo not shown) [Compound 23, 5-[1,2]dithiolan-3-yl-pentanoic acid [3-(2-chloro-6,7-dimethoxy-chinazoline-4-ylamino)-propyl]-amide]
IC50 [1]: 192000 nM
inhibition at 100 µM [5]: 32.1 ± 3.9%

O=C(CCCCC1CCSS1)NCCNc1c2c(nc3ccccc13)CCCC2 (stereo not shown) [Compound 1, 5-[1,2]dithiolan-3-yl-pentanoic acid [2-(1,2,3,4-tetrahydro-acridin-9-ylamino)-ethyl]amide]
IC50 [1, 7]: 97 nM
IC50 [2, 8]: 47.5 nM

CC[C@H](C)[C@H](NC(=O)[C@H](CCC(=O)O)NC(=O)[C@H](CCC(=O)O)NC(=O)[C@@H](NC(=O)[C@@H](N)CCCCN)[C@@H](C)O)C(=O)N[C@@H](CO)C(=O)N[C@@H](CCC(=O)O)C(=O)N[C@H](C(=O)N[C@@H](CC(N)=O)C(=O)N[C@@H](CC(C)C)[C@@H](O)CC(=O)N[C@H](C(=O)N[C@@H](C)C(=O)N[C@@H](CCC(=O)O)C(=O)N[C@@H](Cc1ccccc1)C(=O)O)C(C)C)C(C)C [peptide derivative of statin] (H-KTEEISEVN[Sta]VAEF-OH)
IC50 (BACE1 (β-secretase)): 18 nM

O=C(CCCCC1CCSS1)NCCCCCNc1c2c(nc3ccccc13)CCCC2 (stereo not shown) [Compound 4, 5-[1,2]dithiolan-3-yl-pentanoic acid [5-(1,2,3,4-tetrahydro-acridin-9-ylamino)-pentyl]-amide]
IC50 [1, 7]: 38.4 nM
IC50 ([2]; read-out: IC50 BChE): 1.48 nM

CCN(CCCCCCNC(=O)CCCCC1CCSS1)Cc1ccccc1OC (stereo not shown) [Compound 18, 5-[1,2]dithiolan-3-yl-pentanoic acid {6-[Ethyl-(2-methoxy-benzyl)-amino]-hexyl}-amide]
IC50 [1, 7]: 256 nM
IC50 [2, 8]: 2490 nM
inhibition at 100 µM [5]: 16.8 ± 2.2%
recovery of the cholinergic deficit (number of cholinergic neurones in the basal forebrain) (anti-NGF mice (AD11)): significant recovery
